Measurements: ChEMBL document CHEMBL3507680, “University of Dundee, Gates Library screen for HepG2 cell viability”

Assay: Human HepG2 cell viability assay in 384 well format
Format: toxicity, cell-based
Parameters: dose 125 nL, time 70.5 hour; cytotoxicity at 70.5 h: concentration not given beside the values
Settings: HepG2 cells, read-out: Inhibition

Row | SMILES | cytotoxicity at 70.5 h
1 | O[C@H]1[C@H](n2cc(-c3cccnc3)nn2)c2ccccc2C12CCNCC2 | 0.63%
2 | Cc1nnc(C(C)N2CCc3[nH]c4ccccc4c3C2)o1 (stereo unspecified) | -4.16%
3 | Cc1nc(C(=O)N2CCCC2c2c(C)nn(C)c2C)ccc1C#N (stereo unspecified) | -7.57%
4 | CNC(=O)c1cc2c(nc1N(C)C)CCN(S(=O)(=O)CC(C)C)CC2 | -12.2%
5 | c1ccc2c(c1)cnn2CCCNC1CCOC2(CCOCC2)C1 (stereo unspecified) | -13.6%
6 | Cc1nc(N2CCCC2)nc2c1CN(C(=O)NC(C)C)CC2 | -3.45%
7 | Cc1nn(C)cc1-c1cc(C(=O)NCC(C)(C)c2cccc(F)c2)n[nH]1 | 1.66%
8 | CN1CCN(c2ccccc2NC(=O)NCC[S+](C)[O-])CC1 (stereo unspecified) | -7.57%
9 | O=C(NCCn1ccc(-c2ccncc2)n1)c1ccc2c(c1)OCO2 | 1.76%
10 | Cc1cnn(CC2CCCCN2C(=O)Cc2c(C)nn(C)c2C)c1 (stereo unspecified) | -3.41%
11 | Cc1c(CS(C)(=O)=O)cccc1NCCCC1CCCC1 | -7.83%
12 | Cc1ccc(CN2CCC3(CC(C(=O)NCC4CC4)=NO3)C2)cc1C (stereo unspecified) | 27.5%
13 | Cc1nnc(C(C)N2CCCN(Cc3noc(C4CC4)n3)CC2)o1 (stereo unspecified) | 13.7%
14 | Cc1ccc(S(=O)(=O)NC2CCC(=O)NC2)cc1Br (stereo unspecified) | -4.2%
15 | Cc1cc(C)n(CCCN(C)C(=O)CN2CC3(CCNCC3)OC2=O)n1 | -8.19%
16 | COc1ncccc1NC(=O)N(Cc1ccc(C(N)=O)cc1)C1CC1 | -12.7%
17 | Cc1ccoc1C(=O)N1CCc2ccc(=O)n(CCN(C)C)c2CC1 | -3.74%
18 | c1cc(CN2CCC(n3cc(CN4CCCC4)nn3)CC2)cs1 | -5.26%
19 | CC(C)CC(=O)N1CCCn2cnc(CN3CCCC3=O)c2C1 | -4.92%

Row | SMILES | cytotoxicity at 70.5 h
20 | CN(C)S(=O)(=O)N1CCN(c2ccnc(N3CCCC3)n2)CC1 | -12.4%
21 | Cc1cc(CN2CCN(C(=O)NCc3nc(C)cs3)CC2)on1 | -11.7%
22 | CCCc1ncc(C(=O)N2CCOC(c3nc(C)n[nH]3)C2)s1 (stereo unspecified) | -7.33%
23 | COCCNC(=O)[C@]12COC[C@H]1CN(c1cc(OC)ncn1)C2 | -1.98%
24 | Cc1ccc(CN(Cc2cc(C)no2)C2CC2)cc1 | -3.87%
25 | CC(=O)N1CCC(Oc2ccc(C#N)cc2)CC1 | 9.28%
26 | CC(=O)NCCC(=O)Nc1sccc1C(=O)C(C)(C)C | 2.44%
27 | CC(C)N1CC2(CCCN(Cc3noc(C4CCCC4)n3)C2)CCC1=O (stereo unspecified) | 3.06%
28 | O=C(Cc1csc(-c2ccccc2F)n1)NCc1cccc(C(=O)O)c1 | -17.7%
29 | Cc1ccccc1-c1cncc(C2CCN(C(=O)CN(C)C)CC2)n1 | 23.3%
30 | Nc1nc2c(c3c1C(=O)NC3=O)CCCC2 | -9.66%
31 | COCCC(=O)N1CCC2(COCc3cnc(N(C)C)nc32)C1 (stereo unspecified) | -8.65%
32 | CC(=O)N1CCN(C(=O)c2cnc(OC(C)C)c(Cl)c2)CC1 | -13.6%
33 | O=C(C1CN(Cc2ccsc2)Cc2ccnn2C1)N1CCCC1 (stereo unspecified) | 2.84%
34 | CCCC(=O)N1CCc2nc3cc(OC)c(OC)cc3c(=O)n2CC1 | -5.67%
35 | CC(C)c1cc(NC(=O)c2cccnc2)[nH]n1 | -10.3%
36 | Cc1ccccc1C1(CNC(=O)CCN2C(=O)CCC2=O)CC1 | -12.8%
37 | CCn1ccnc1CN(C)C(=O)Cn1ccc2ccccc2c1=O | -10.4%
38 | CCc1ccccc1CNC(=O)NCc1cnn(C)c1 | -11.8%

Row | SMILES | cytotoxicity at 70.5 h
39 | COc1cccc2c1N(Cc1nc3c(cnn3C)c(=O)[nH]1)CCC2 | 22.2%
40 | Cc1nn(Cn2ccc(C(=O)N3CCCCCC3)n2)c(C)c1Cl | -11.3%
41 | CC(=O)NC(C)(C)C(=O)Nc1ncc(Cc2ccc(C)c(F)c2)s1 | -0.712%
42 | Cc1c(Br)cccc1S(=O)(=O)NCc1ccnn1C | -3.27%
43 | CC(O)(CNC(=O)c1c(F)cccc1Cl)c1ccco1 (stereo unspecified) | 29.8%
44 | Cc1cccc(Nc2cccc(C3CCCN(Cc4ncc[nH]4)C3)n2)n1 (stereo unspecified) | -8.27%
45 | CC(C)(C)CC(=O)NCC(=O)NCC(O)c1ccc2ccccc2c1 (stereo unspecified) | 4.11%
46 | CC(C)(N)c1cn(C2CCN(C(=O)CCC3CCCCC3)CC2)nn1 | -5.04%
47 | CC(C)(C)C(Cn1cccn1)NC(=O)c1ccco1 (stereo unspecified) | -2.47%
48 | c1ccc(OC[C@@H]2CCC[C@@]23CNCCO3)nc1 | 10.8%
49 | CCCOc1ccccc1CN[C@@H]1CCC[C@H]1Cc1cc(C)no1 | 23.6%
50 | CN(Cc1ccc(F)cc1)C(=O)Cn1nc(-c2ccc(F)cc2)oc1=O | 26.3%
51 | O=C1N[C@H]2OCCC[C@H]2[C@H](c2ccccc2C(=O)O)N1 | 13.9%
52 | Cc1cc(NC(=O)N2CCOCC2)nn1-c1ccccc1Cl | -5.4%
53 | c1cncc(-c2noc(CN3CCc4cncnc4C3)n2)c1 | -12.6%
54 | CCC1c2ccsc2CCN1C(=O)NCc1ccc(C)nc1 (stereo unspecified) | -10.2%
55 | CC(c1cccc(O)c1)N(C)S(N)(=O)=O (stereo unspecified) | 37%
56 | O=C(CN1CCN(C(=O)Cc2ccc3c(c2)OCCO3)CC1)NC1CC1 | -12.7%
